Experimental data taken from paper PMC12794274, “Therapeutic potential of Sheng-Xian-Tang in doxorubicin-induced chronic heart failure by regulation of phenylalanine metabolism disruption” (Chinese Medicine, 2026).
Read-outs that look alike come from different tables or passages of the source. One block for each compound: values may come before it.

Experiments:
[1] = system: AML12 cells; test: AML12 cell viability (CCK8); type: cell-based
Experimental: (§1) Mouse hepatocellular cell lines (AML12), purchased from the Shanghai Cell Bank of Chinese Academy of Sciences (Shanghai, China), were cultured in Dulbecco’s Modified Eagle Medium (DMEM) supplemented with 10% fetal bovine serum (FBS) and 2 mM L-glutamine and 1% pyruvate and maintained at 37 °C in a […], 5% CO2 incubator. Cells were seeded at a density of 5 × 10^5 cells/well in 6-well plates. […] Cells’ survival rate was detected by Cell Counting Kit-8 (CCK8) Reagents (Thermo Scientific, Singapore).

[2] = system: PAH activity in AML12 cells; type: cell-based; details: BH4 10 μM; timosaponin B-II, neomangiferin, anemarrhenasaponin I 5, 10, 20 μM; timosaponin AIII 0.1, 0.2, 0.5 μM
Experimental: (§2) Serum biochemical parameters including brain natriuretic peptide (BNP), creatine kinase (CK), lactate dehydrogenase (LDH), alanine aminotransferase (ALT), and aspartate aminotransferase (AST) were measured using commercial ELISA kits (Nanjing Jiancheng Bioengineering Institute, Nanjing, China) according to the manufacturer’s instructions. Superoxide dismutase (SOD), and malondialdehyde (MDA) levels in liver and heart tissues were measured using assay kits from Aifang Biotechnology (Changsha, China). Phenylalanine and tyrosine concentrations in the cell were determined using an ELISA kit from Abmart (Shanghai, China).
as §1

[3] = target: Phenylalanine hydroxylase (PAH) protein (Homo sapiens, UniProt P00439); test: Surface Plasmon Resonance (SPR) analysis, Biacore T200; type: binding; details: PAH immobilized on CM5 chip, read-out: dissociation constant (Kd)
Experimental: SPR assays were conducted using a Biacore T200 system (GE Healthcare Life Sciences, USA). Phenylalanine hydroxylase (PAH) protein was immobilized on CM5 sensor chips using an amine-coupling kit (BR100050, GE Healthcare) following standard procedures. […] Samples were injected over reference and PAH-immobilized flow cells at a flow rate of 30 μL/min, with 120 s contact time and 120 s dissociation time. Kinetic parameters were calculated using Biacore T200 evaluation software.

[4] = system: DOX-induced chronic heart failure (CHF) rat model; test: Echocardiography (LVEF%, LVFS%) in DOX-induced CHF rats; type: in vivo; details: experiment II, DOX + Phe 280 mg/kg, BH4 14 mg/kg or SXT 16 g/kg vs DOX group
Experimental: Experiment I, 48 rats were randomly divided into six groups: (1) the CON group; (2) the DOX group; (3) the DOX + enalapril (ENP, positive control, 1.8 mg/kg) group; (4) the DOX + SXT at low dose group (4 g/kg); (5) the DOX + SXT at middle dose group (8 g/kg); and […] the DOX + SXT at high dose group (16 g/kg). Except those rats in the CON group, the remaining rats received DOX at a 2.5 mg/kg per injection to a cumulative dose of 15 mg/kg. The dose of SXT for the low-dose group was set at 4 g/kg, based on the minimum human clinical daily dose (48.5 g, Table S2) converted to an equivalent rat dose using body surface area normalization (48.5 g/70 kg × 6.3 ≈ 4.4 g/kg, rounded to 4 g/kg). To evaluate a clear dose–response relationship, the medium and high doses were established at 8 g/kg and 16 g/kg, respectively, corresponding to 2 fold and 4 fold the low dose. This gradient dosing strategy is consistent with the Technical Guidelines for Pharmacodynamic Studies of Traditional Chinese Medicine and the Technical Guidelines for General Pharmacology Studies of Traditional Chinese Medicine and Natural Drugs, and is further supported by our previous study on the effective dose range of SXT in a rat model of doxorubicin-induced chronic heart failure. Heart function was monitored by echocardiography analysis at day 39, and the CHF model was considered to be successfully established when the left ventricular ejection fraction (LVEF%) values were reduced to 50%. Urinary samples were collected at five time points (0, 10, 20, 30, and 39 d), while fecal samples were collected before the rats were euthanized. Subsequently, the rats were anesthetized, and blood samples and heart and liver tissues were collected. All bio-samples were stored at − 80 °C until analysis.
Experiment II was conducted to specifically confirm the exacerbated cardiac abnormality of phenylalanine in the DOX-induced CHF rats. […] Heart function was detected as in the experiment I.
Echocardiographic (ECG) measurements were performed using M-mode tracings and continuous Doppler with a Vevo 2100 system (Visual Sonics, Toronto, ON, Canada). Rats were anesthetized with isoflurane prior to imaging. Cardiac function indices including left ventricular ejection fraction (LVEF%) and left ventricular fractional shortening (LVFS%) were measured and recorded.

[5] = system: DOX-induced CHF rats; test: Serum biochemical parameters (BNP, CK, LDH, ALT, AST) by ELISA kits; type: in vivo, rat; details: experiment II, co-treatment vs DOX group
Experimental: as §2, with “manufacturer's” for “manufacturer’s”, “Aifang” left out

[6] = system: phenylalanine metabolism; test: Phenylalanine and tyrosine levels in rat serum, liver and heart tissues (LC/MS); type: in vivo; details: experiment II, DOX + phenylalanine 280 mg/kg, BH4 14 mg/kg or SXT 16 g/kg
Experimental: Phenylalanine and tyrosine in the different rat bio-samples were analyzed by LC/MS using an Agilent 1290 Ultra high-performance liquid chromatography (UHPLC) and an Agilent 6460 triple-quadrupole tandem mass spectrometer (QQQ-MS) (Agilent Inc, USA). Data were acquired by using an Agilent Zorbax SB-C18 column (3.0 × 150 mm, 5 μm) as described previously.

[7] = system: phenylalanine hydroxylase (PAH); test: PAH expression in liver and heart (western blotting, immunofluorescence); type: in vivo, rat; details: experiment II; DOX vs CON, co-treatments vs DOX
Experimental: Immunofluorescence staining was performed on tissue sections to detect phenylalanine hydroxylase (PAH), prostaglandin-endoperoxide synthase 2 (PTGS2), and reactive oxygen species (ROS). Primary antibodies against PAH and PTGS2 were used, while ROS was detected using the DCFH-DA probe. Nuclei were counterstained with DAPI. Images were captured using a fluorescence microscope.
Protein was extracted from liver or heart tissue samples (30 mg) using lysis buffer. Total protein concentration was determined using a BCA protein assay kit (Thermo Fisher Scientific, USA). Equal amounts of protein from each sample were separated on 10–12% SDS-PAGE gels and transferred to PVDF membranes. Membranes were blocked with quick blocking buffer for 30 min, then incubated with anti-PAH primary antibody (1:1000 dilution) overnight at 4 °C. After washing, membranes were incubated with a secondary antibody for 1 h at 37 °C. Protein bands were visualized using an Odyssey infrared imaging system (JS-1070, Shanghai Peiqing Science & Technology Co., Ltd, China). Band intensities were quantified using ImageJ software.

[8] = system: heart tissues; test: Transmission electron microscopy of heart tissue; type: in vivo, rat; details: experiment II; DOX alone, co-treatments vs DOX
Experimental: Freshly excised heart tissues were immediately fixed in 2.5% glutaraldehyde at 4 °C overnight. After washing with 0.1 M cacodylate trihydrate buffer, samples were post-fixed with 1% osmium tetroxide for 1 h. Tissues were then dehydrated through a graded ethanol series, incubated in acetone, and embedded in epoxy resin. Ultrathin sections were mounted on copper grids and imaged using a Hitachi HT7800 transmission electron microscope (Tokyo, Japan).

[9] = system: DOX-induced CHF rats; test: Oxidative stress in heart and liver tissue (SOD, MDA, ROS, PTGS2); type: in vivo, rat; details: experiment II, co-treatment with DOX
Experimental: Immunofluorescence staining was performed on tissue sections to detect phenylalanine hydroxylase (PAH), prostaglandin-endoperoxide synthase 2 (PTGS2), and reactive oxygen species (ROS). Primary antibodies against PAH and PTGS2 were used, while ROS was detected using the DCFH-DA probe. Nuclei were counterstained with DAPI. Images were captured using a fluorescence microscope. Serum biochemical parameters including brain natriuretic peptide (BNP), creatine kinase (CK), lactate dehydrogenase (LDH), alanine aminotransferase (ALT), and aspartate aminotransferase (AST) were measured using commercial ELISA kits (Nanjing Jiancheng Bioengineering Institute, Nanjing, China) according to the manufacturer's instructions. Superoxide dismutase (SOD), and malondialdehyde (MDA) levels in liver and heart tissues were measured using assay kits from […] Biotechnology (Changsha, China). Phenylalanine and tyrosine concentrations in the cell were determined using an ELISA kit from Abmart (Shanghai, China).

[10] = system: cardiac tissues of DOX-induced CHF rats; test: Heart histopathology (H&E, Masson) and TUNEL apoptosis detection; type: in vivo, rat; details: experiment II, co-treatment vs DOX group
Experimental: Cardiac tissues were fixed in 4% paraformaldehyde, embedded in paraffin, and sectioned at 4–5 μm thickness. Hematoxylin and eosin (H&E) staining was performed to assess histopathological changes, while Masson’s trichrome staining was used to evaluate cardiac fibrosis. Apoptosis in cardiac tissues was detected using a TUNEL assay kit (C1088, Beyotime, Shanghai, China).

Chain of Phenylalanine hydroxylase (PAH) protein (P00439 whole entry): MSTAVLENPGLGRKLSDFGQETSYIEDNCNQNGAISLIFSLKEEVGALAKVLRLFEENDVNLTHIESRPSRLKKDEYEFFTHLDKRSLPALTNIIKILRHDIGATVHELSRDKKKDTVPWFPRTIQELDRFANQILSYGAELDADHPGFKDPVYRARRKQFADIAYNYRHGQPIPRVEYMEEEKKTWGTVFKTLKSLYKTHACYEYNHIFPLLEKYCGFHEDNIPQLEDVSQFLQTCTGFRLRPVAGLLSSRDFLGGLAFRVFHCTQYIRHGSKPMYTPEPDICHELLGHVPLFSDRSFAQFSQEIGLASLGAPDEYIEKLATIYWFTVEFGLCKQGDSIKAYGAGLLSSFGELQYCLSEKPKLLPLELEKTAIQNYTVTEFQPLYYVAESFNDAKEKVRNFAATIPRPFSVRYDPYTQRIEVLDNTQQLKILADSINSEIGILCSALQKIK

Structure (SMILES): CC(C)CCC1(O)O[C@H]2[C@H](O)[C@H]3[C@@H]4CC[C@@H]5C[C@@H](O[C@@H]6O[C@H](CO)[C@H](O)[C@H](O)[C@H]6O[C@@H]6O[C@H](CO)[C@@H](O)[C@H](O)[C@H]6O)CC[C@]5(C)[C@H]4CC[C@]3(C)[C@H]2[C@@H]1C (stereo partly shown) [Anemarrhenasaponin I]
non-cytoxic concentration ([1]; AML12 cells): 5 to 20 µM
phenylalanine levels in AML12 cells increased by DOX [2]: significantly reduce
Kd [3]: < 10 µM

Structure (SMILES): CC(C)(O)[C@@H]1CC[C@](C)([C@H]2[C@@H](O)C[C@@]3(C)[C@@H]4C[C@H](O[C@@H]5O[C@H](CO)[C@@H](O)[C@H](O)[C@H]5O)[C@H]5C(C)(C)[C@@H](O[C@@H]6OC[C@@H](O)[C@H](O)[C@H]6O)CC[C@@]56C[C@@]46CC[C@]23C)O1 [Astragaloside IV]
non-cytoxic concentration ([1]; AML12 cells): 5 to 20 µM

Structure (SMILES): O=C(O)CCCCCCCC(=O)O [Azelaic acid]
non-cytoxic concentration ([1]; mouse): 5 to 20 µM

Kd [3]: 10.7 µM
Structure (SMILES): C[C@H](O)[C@H](O)[C@H]1CNc2nc(N)[nH]c(=O)c2N1 [BH4, tetrahydrobiopterin]
LVEF and LVFS / DOX-induced cardiac dysfunction [4]: partially alleviated
non-cytoxic concentration ([1]; mouse): 5 to 20 µM
DOX-induced increases in serum levels of BNP, CK, LDH, ALT and AST [5]: significantly inhibited
phenylalanine levels in AML12 cells increased by DOX [2]: markedly decreased
serum phenylalanine concentration [6]: 46.9791 µM
PAH expression in heart tissue [7]: decreased
PAH expression in liver tissue [7]: increased
mitochondrial ultrastructure of heart (electron microscopy) [8]: reversed
ROS production and PTGS2 expression in the heart [9]: effectively attenuated
DOX-induced cardiac injury and collagen accumulation (H&E and Masson) [10]: ameliorated

Structure (SMILES): COc1ccc(-c2coc3cc(O[C@@H]4O[C@H](CO)[C@@H](O)[C@H](O)[C@H]4O)ccc3c2=O)cc1O [Calycosin-7-O-β-D-glucoside]
non-cytoxic concentration [1]: 5 to 20 µM

Structure (SMILES): COc1ccc(-c2coc3cc(O)ccc3c2=O)cc1O [Calycosin]
non-cytoxic concentration ([1]; AML12 cells): 5 to 20 µM

Structure (SMILES): C[C@@H]1C[C@H]2O[C@@]3(O[C@@H]2C(C)(C)O)[C@H](O)[C@@]2(C)[C@@H]4CC[C@H]5C(C)(C)[C@@H](O[C@@H]6OC[C@@H](O)[C@H](O)[C@H]6O)CC[C@@]56C[C@@]46CC[C@]2(C)[C@@H]13 [Cimigenol xyloside]
non-cytoxic concentration ([1]; AML12 cells): 5 to 20 µM
